In publication PMC10582335 (Frontiers in Pharmacology, 2023):
“And” between values parts separate entries of the source, which are not always exact repeats. Equal values may be shown once. Read-outs that look alike come from different tables or passages of the source. Blank lines part the entries; values can stand above or below the compound they belong to.

Assays:
[1] = Pharmacokinetics of apixaban in rats, alone and after multiple doses of almonertinib; format: in vivo, Sprague-Dawley (SD) rats; conditions: for increase of AUC of apixaban: multiple doses of almonertinib; for MRT inf / MRT last / AUC(0-inf) / AUC(0-t) / Cmax / Tmax / CL/F / Vd/F / half-life: male, Sprague-Dawley, rat, po; for MRT inf: read-out: MRT0-∞; for MRT last: read-out: MRT0-t; for CL/F: read-out: CLz/F (converted); for Vd/F: read-out: Vz/F; for half-life: read-out: t1/2z (converted)
Procedure: Chromatographic separation was performed using an XSelect HSS T3 column (2.1 mm × 100 mm, 2.5 µm, Waters, Milford, MA, United States) at 40°C by gradient elution. The mobile phase consisted of water (A) and acetonitrile (0.1% formic acid, B). […] The flow rate was 0.35 mL min^−1, and the injection volume was 6 µL. The positive ion mode with multiple reaction detection was used. […] The mass spectrometer conditions, including delustering potential (DP) and collision energy (CE) of the compounds, are shown in Table 1. […] Protein precipitation was used to process the plasma samples. 5 μL of mixed IS working solution, 50 µL of the plasma samples, and 150 µL of acetonitrile were vortex-mixed for 1.0 min. […] The supernatant was transferred to a 96-well plate for sample analysis. […] (Beijing, China). […] The study was approved and supervised by the Animal Ethics Committee of Hebei General Hospital (Shijiazhuang, China) (No. 2023024). Adaptive feeding (sufficient food and water) was performed for 1 week before the experiment. […] All rats were fasted for 12 h before starting the experiments while still given water. Sixty healthy rats were randomly divided into ten groups (n = 6). […] Blood samples were centrifuged at 3,500 g for 10 min, and then the supernatant was gathered and stored in a −80°C refrigerator. After, rat intestine, kidney and liver tissues were harvested for molecular analysis on the ninth or fifth day after treatment with the corresponding drugs for each group. The tissues were placed immediately at −80°C. DAS 2.1.1 Software (Mathematical Pharmacology Professional Committee of China, Shanghai, China) was applied to calculate pharmacokinetic parameters using non-compartmental analysis. SPSS 25.0 statistical software (SPSS Inc., Chicago, IL, United States) was applied to statistically analyze the main pharmacokinetic parameters, including AUC, Cmax, Tmax, t1/2, CLz/F, Vz/F, and MRT.

[2] = cited from earlier work; for time of the maximal blood concentration after oral intake: (±1 h), each of two drugs, ref Steffel et al., 2021; for time to reach maximum plasma concentrations: after oral administration, 2005b, Raghavan et al., 2009; for time to reach maximum plasma concentrations / terminal half-life: ref Kubitza et al., 2005a, Kubitza et al.; for terminal half-life: 2008
[3] = design: method as in Frost et al., 2015; conditions: ref Frost et al., 2015, cited from earlier work
[4] = Stability in rat plasma under storage and processing conditions (QC samples, UPLC-MS/MS); conditions: n = 6
Procedure: The stability of plasma samples was validated by the QC samples at three concentration levels in six replicates under various storage and processing conditions: autosampler for 24 h after preprocessing, room temperature for 8 h, −80°C for 30 days, and three freeze-thaw cycles (−80°C to room temperature). The samples were verified to be stable if the deviation of the samples was not more than ±15% of the standard concentration.

[5] = design: method as in Kim et al., 2019; conditions: with verapamil (inhibitor of P-gp and CYP3A4); ref Kim et al., 2019; cited from earlier work
[6] = apixaban 0.25 mg/kg with multiple doses of almonertinib (group 8) compared with group 2, rats
[7] = apixaban 0.5 mg/kg with multiple doses of almonertinib (group 7) compared with group 2, rats
[8] = plasma, 0.25 mg/kg, rats, oral apixaban 0.25 mg/kg after almonertinib 15 mg/kg for nine days (group 8), mean ± SD, n = 6
[9] = plasma, 0.5 mg/kg, rats, oral apixaban 0.5 mg/kg after almonertinib 15 mg/kg for nine days (group 7), mean ± SD, n = 6
[10] = plasma, 0.5 mg/kg, rats, oral apixaban 0.5 mg/kg alone (group 2), mean ± SD, n = 6
[11] = Freeze-thaw stability for three times, high QC (nominal 150 almonertinib, 800 apixaban, 1,500 rivaroxaban ng/mL)
[12] = Freeze-thaw stability for three times, low QC (nominal 1 almonertinib, 2 apixaban, 10 rivaroxaban ng/mL)
[13] = Freeze-thaw stability for three times, medium QC (nominal 80 almonertinib, 400 apixaban, 800 rivaroxaban ng/mL)
[14] = Room temperature for 8 h, high QC (nominal 150 almonertinib, 800 apixaban, 1,500 rivaroxaban ng/mL)
[15] = Room temperature for 8 h, low QC (nominal 1 almonertinib, 2 apixaban, 10 rivaroxaban ng/mL)
[16] = Room temperature for 8 h, medium QC (nominal 80 almonertinib, 400 apixaban, 800 rivaroxaban ng/mL)
[17] = −80°C for 30 days, high QC (nominal 150 almonertinib, 800 apixaban, 1,500 rivaroxaban ng/mL)
[18] = −80°C for 30 days, low QC (nominal 1 almonertinib, 2 apixaban, 10 rivaroxaban ng/mL)
[19] = −80°C for 30 days, medium QC (nominal 80 almonertinib, 400 apixaban, 800 rivaroxaban ng/mL)

SMILES: COc1ccc(-n2nc(C(N)=O)c3c2C(=O)N(c2ccc(N4CCCCC4=O)cc2)CC3)cc1 [apixaban, Apixaban]
increase of Cmax of apixaban ([1]; apixaban 0.25 mg/kg with multiple doses of almonertinib (group 8) compared with apixaban 0.5 mg/kg alone (group 2), rats): 2.19 fold and 2.2 fold
decrease of CLz/F of apixaban [1, 6]: 5.29 fold
increase of AUC0-t of apixaban [1, 6]: 2.06 fold
increase of AUC0-∞ of apixaban [1, 6]: 2.02 fold
increase of Cmax of apixaban ([1]; apixaban 0.5 mg/kg with multiple doses of almonertinib (group 7) compared with apixaban 0.5 mg/kg alone (group 2), rats): 2.69 fold and ~3.0 fold
decrease of CLz/F of apixaban [1, 7]: 3.00 fold
increase of AUC0-t of apixaban [1, 7]: 2.87 fold
increase of AUC0-∞ of apixaban [1, 7]: 2.82 fold
increase of AUC of apixaban ([1]; dose of apixaban reduced by half, rats (discussion)): 2.1 fold
MRT inf ([1]; in vivo, 0.25 mg/kg): 2.06 ± 0.36 h
MRT last ([1]; in vivo, 0.5 mg/kg): 2.19 ± 0.13 h
AUC(0-inf) [1, 8]: 1870 ± 528 ng·h/mL
AUC(0-t) [1, 8]: 1870 ± 529 ng·h/mL
Cmax [1, 8]: 645 ± 191 ng/mL
Tmax [1, 8]: 0.79 ± 0.25 h
CL/F [1, 8]: 2.33 mL/min/kg
Vd/F [1, 8]: 0.44 ± 0.11 L/kg
half-life [1, 8]: 2.17 ± 0.15 h
MRT last ([1]; plasma, 0.25 mg/kg): 2.01 ± 0.32 h
AUC(0-inf) [1, 9]: 2370 ng·h/mL
AUC(0-t) [1, 9]: 2360 ng·h/mL
Cmax [1, 9]: 747 ± 159 ng/mL
Tmax [1, 9]: 0.63 ± 0.14 h
CL/F [1, 9]: 3.67 mL/min/kg
MRT inf [1, 9]: 2.11 ± 0.13 h
Vd/F [1, 9]: 0.58 ± 0.2 L/kg
half-life [1, 9]: 1.81 ± 0.23 h
AUC(0-inf) [1, 10]: 621 ± 168 ng·h/mL
AUC(0-t) [1, 10]: 611 ± 168 ng·h/mL
Cmax [1, 10]: 202 ± 50.9 ng/mL
Tmax [1, 10]: 0.68 ± 0.28 h
CL/F [1, 10]: 14.7 mL/min/kg
MRT inf [1, 10]: 2.42 ± 0.16 h
Vd/F [1, 10]: 3.72 ± 1.63 L/kg
half-life [1, 10]: 2.95 ± 0.96 h
MRT last ([1]; plasma, 0.5 mg/kg): 2.08 ± 0.13 h
increase of AUC of apixaban ([1]; rats (discussion, AUC not specified further)): ~3.0 fold
time of the maximal blood concentration after oral intake [2]: 2 to 3 h
time to reach maximum plasma concentrations [2]: 2 to 4 h
renal excretion as share of the total clearance ([2]; apixaban, ref Byon et al., 2019): approximately 27%
increase in exposure to apixaban ([3]; combined with diltiazem): 1.4 fold
increase in exposure to apixaban ([3]; combined with ketoconazole): 2.0 fold
Stability: Accuracy (RE%) [4, 11]: 0.04%
Stability: measured concentration, Mean ± SD [4, 11]: 800.33 ± 24.72 ng/mL
Stability: Accuracy (RE%) [4, 12]: −3.42%
Stability: measured concentration, Mean ± SD [4, 12]: 1.93 ± 0.13 ng/mL
Stability: Accuracy (RE%) [4, 13]: 2.67%
Stability: measured concentration, Mean ± SD [4, 13]: 410.67 ± 12.03 ng/mL
Stability: Accuracy (RE%) [4, 14]: 0.60%
Stability: measured concentration, Mean ± SD [4, 14]: 804.83 ± 20.23 ng/mL
Stability: Accuracy (RE%) [4, 15]: 3.83%
Stability: measured concentration, Mean ± SD [4, 15]: 2.08 ± 0.07 ng/mL
Stability: Accuracy (RE%) [4, 16]: 6.08%
Stability: measured concentration, Mean ± SD [4, 16]: 424.33 ± 9.35 ng/mL
Stability: Accuracy (RE%) [4, 17]: −2.15%
Stability: measured concentration, Mean ± SD [4, 17]: 782.83 ± 22.19 ng/mL
Stability: Accuracy (RE%) [4, 18]: 0.83%
Stability: measured concentration, Mean ± SD [4, 18]: 2.02 ± 0.08 ng/mL
Stability: Accuracy (RE%) [4, 19]: 0.13%
Stability: measured concentration, Mean ± SD [4, 19]: 400.50 ± 19.99 ng/mL

Stability: Accuracy (RE%) [4, 11]: −5.56%
Stability: measured concentration, Mean ± SD [4, 11]: 1,416.67 ± 48.85 ng/mL
Stability: Accuracy (RE%) [4, 12]: 1.13%
Stability: measured concentration, Mean ± SD [4, 12]: 10.11 ± 0.61 ng/mL
Stability: Accuracy (RE%) [4, 13]: −3.21%
Stability: measured concentration, Mean ± SD [4, 13]: 774.33 ± 23.28 ng/mL
Stability: Accuracy (RE%) [4, 14]: −1.11%
Stability: measured concentration, Mean ± SD [4, 14]: 1,483.33 ± 72.30 ng/mL
Stability: Accuracy (RE%) [4, 15]: 7.75%
Stability: measured concentration, Mean ± SD [4, 15]: 10.78 ± 0.59 ng/mL
Stability: Accuracy (RE%) [4, 16]: 4.19%
Stability: measured concentration, Mean ± SD [4, 16]: 833.50 ± 49.92 ng/mL
Stability: Accuracy (RE%) [4, 17]: −4.33%
Stability: measured concentration, Mean ± SD [4, 17]: 1,435.00 ± 96.07 ng/mL
Stability: Accuracy (RE%) [4, 18]: 6.83%
Stability: measured concentration, Mean ± SD [4, 18]: 10.68 ± 0.22 ng/mL
Stability: Accuracy (RE%) [4, 19]: −4.38%
Stability: measured concentration, Mean ± SD [4, 19]: 765.00 ± 58.14 ng/mL
SMILES: O=C(NC[C@H]1CN(c2ccc(N3CCOCC3=O)cc2)C(=O)O1)c1ccc(Cl)s1 [rivaroxaban, Rivaroxaban]
time of the maximal blood concentration after oral intake [2]: 2 to 3 h
time to reach maximum plasma concentrations [2]: 2 to 4 h
terminal half-life ([2]; elderly subjects): 11 to 13 h
terminal half-life ([2]; healthy young subjects): 5 to 9 h
increase of systemic exposure of rivaroxaban [5]: 2.8 fold
